Data: a melting point compilation (Tetko et al.; mined from patent text by program, amines drawn as free bases though some values may be those of a salt)

Row | SMILES | melting point
1 | COCc1ccc(C(=O)NCC#N)cc1 | 107 to 108 °C
2 | CC(=O)C1C=C(Br)C(=O)CO1 (centres undefined) | 78 to 80 °C
3 | [N-]=[N+]=NC(C(=O)O)c1ccsc1 (centres undefined) | 58 to 59 °C
4 | N#Cc1ccc2c(c1)CCC=C2c1ccns1 | 77 to 81 °C
5 | COCCOCCOCCOCC(N)C(=O)O (centres undefined) | 184 to 185 °C
6 | O=C(O)C=CC(=O)NCCC(=O)O | 150 to 152 °C
7 | CCC(=O)NCCC1=C(C(C)C)Cc2cnc3c(c21)CCO3 | 168 to 170 °C
8 | O=C(CCl)N(c1ccccc1)c1cccc(Cl)c1 | 94 to 96.5 °C
9 | C#CCC1CC2C3CCC(=O)C3(C)CCC2C2(C)CCC(=O)C=C12 (centres undefined) | 145 to 146 °C
10 | O=C1c2cccc([N+](=O)[O-])c2C2CC3(CCN12)OCCO3 (centres undefined) | 206 °C
11 | COc1cc2c(cc1Nc1ncc(Cl)c(N[C@@H]3CCCC[C@H]3NS(C)(=O)=O)n1)CCN(CC(=O)N(C)C)CC2 | 92 to 97 °C
12 | CNc1nc2c(N)ncnc2n1C1OC(CO)C(O)C1O (centres undefined) | > 250 °C
13 | CN(C)c1ccc(-c2cc(C(F)(F)F)c3c(-c4ccccc4)n[nH]c3n2)cc1 | 227 °C
14 | CC1CCCNC(=O)C1 (centres undefined) | 87 to 100 °C
15 | CC(C(=O)N(C)C)n1nc(-c2ccccc2)cc1-c1ccccc1 (centres undefined) | 133 to 135 °C
16 | O=C(OC1CCCCCCCCCCC1)c1ccccc1C(=O)OC1CCCCCCCCCCC1 | 66 to 68 °C
17 | CCOC(=O)C=Cc1ccc([N+](=O)[O-])c(O)c1 | 95 °C
18 | CCNC(CO)Cc1cc(OC)cc(OC)c1 (centres undefined) | 82 to 83 °C
19 | CC(=O)N1CCC(C(=O)N2CC[C@@H](N(C)C(=O)c3ccc(Br)cn3)[C@H](c3ccc(Cl)c(Cl)c3)C2)CC1 | 128 to 130 °C
20 | Cc1nc(C)c(CO)c(C)n1 | 68 °C

The next lines start with the values.

Row | melting point | SMILES
21 | 158 to 160 °C | CC1=C(C(=O)OCc2ccccc2)C(c2cccc([N+](=O)[O-])c2)c2c(ccnc2OC(C)C)N1 (centres undefined)
22 | 113 °C | NC(=O)c1ccnc(Oc2cccc(C(F)(F)F)c2)n1
23 | 63 to 64 °C | CCCCCCCCCCCCOc1ccc(C(=O)c2ccccc2)cc1
24 | 65 to 85 °C | COc1cc2c(cc1Nc1ncc(Cl)c(Nc3ccccc3OC)n1)CCN(CC(=O)N(C)C)CC2
25 | 127 to 132 °C | C=CCNC(=O)c1cc(CCc2cc3c(s2)-n2c(C)nnc2CN=C3c2ccccc2Cl)ccc1CC(=O)Nc1cccc(/C=C/c2nc(C3CCC3)cs2)c1
26 | 151 to 154 °C | CCOC(=O)c1cnn(-c2ccccc2N)c1O
27 | 144 to 146 °C | Nc1ccc2c(S(=O)(=O)c3ccccc3)c[nH]c2c1
28 | 77 to 80 °C | CCCCCCOC(=O)Oc1ccc2c(N3CCN(CCCC(=O)c4ccc(F)cc4)CC3)noc2c1
29 | 138 to 140 °C | CSc1nc(C)ccc1NC(=O)CCCCCSc1nc2ccccc2[nH]1
30 | 172 to 174 °C | CCCCCCCCc1ccc(N(c2ccc(CCCCCCCC)cc2)C2(c3ccc(N(C)C)cc3C)OC(=O)c3ccccc32)cc1 (centres undefined)
31 | > 195 °C | Cc1cc(C)c(C2C(=O)N(C)C3(CCN(N(C)C)CC3)C2=O)c(C)c1 (centres undefined)
32 | 90 to 91 °C | Clc1ccc(CN2C(=NCCCn3ccnc3)c3cccc4cccc2c34)cc1
33 | 170 to 172 °C | COc1ccc(NC(=O)/C=C/c2ccc(N)c(F)c2)cc1N
34 | 170 to 171 °C | CCn1c(=O)n(O)c(=O)c2cc(F)c(N3CCCC3)cc21
35 | 88 to 97 °C | CCCCCCCCCCCCc1cc(C(C(=O)Nc2c(OC)cc(OC)cc2OC)c2ccccc2)on1 (centres undefined)
36 | 92 to 93 °C | O=C(O)c1cccc(N(CCc2ccccc2)c2nnc(-c3cccc(Oc4cccc(C(F)(F)F)c4)c3)s2)c1
37 | 148 to 150 °C | CC(C)=NOCc1nc2c(N)nc3cccnc3c2n1CCCNC(=O)OC(C)(C)C
38 | 120 to 122 °C | CCCCNC(=O)[C@H](C)C[C@H](O)[C@H](CC1CCCCC1)NC(=O)[C@H](Cc1cscn1)NC(=O)[C@@H](CC(=O)N1CCCCC1)Cc1ccc(OC)cc1
39 | 211 to 212 °C | COc1ncc(-c2cc(NC(=O)c3csc(CN4C[C@@H](C)O[C@@H](C)C4)n3)c3cn[nH]c3c2)cc1NS(=O)(=O)c1ccc(F)cc1F
